# Results taken from US5118669A, “Peptides and intermediates therefor useful as antiallergic agents, vasodilators and immunoregulators” (Hitachi Chemical Co., Ltd., priority 1989, dated 1992).
# Columns and labels:
# [1] = test system: thoracic aorta of male rabbits contracted with norepinephrine; assay: Vasodilating action on aortic spiral strip contracted with norepinephrine; set-up: species or system rabbit; conditions: norepinephrine contraction
# Procedure: (§1) The thoracic aorta of male rabbits weighing 2.5-3 kg was excised and aortic specimens of spiral strip 25-30 mm in length were prepared. […] The specimen was cumulatively administered with H-Asp-Gly-Lys-OH, H Ser-Asp-Gly-Lys-OH, or H-Asp-Ser-Asp-Gly-Lys-OH or H-Ala-Asp-Ser-Asp-Gly-Lys-OH, and relaxation reaction of the blood vessel was observed. As comparative drug were employed nitroprusside (sodium salt) and verapamil.
# [2] = test system: thoracic aorta of male rabbits contracted with potassium chloride; assay: Vasodilating action on aortic spiral strip contracted with potassium chloride; set-up: species or system rabbit; conditions: potassium chloride contraction
# Procedure: as §1
# [3] = test system: intraperitoneal mast cells of the rats; assay: Inhibitory activity on histamine release from passively sensitized rat mast cells; format: cell-based; conditions: for inhibitory activity on histamine release: at a concentration of 10^-5 M or higher, FIG. 5-7; for potency of histamine release inhibition compared with H-Asp-Ser-Asp-Pro-Arg-OH: versus comparative drug H-Asp-Ser-Asp-Pro-Arg-OH; for potency of histamine release inhibition compared with cromoglycate: versus cromoglycate
# Procedure: Male Wistar rats weighing 300-350 g were passively sensitized, and intraperitoneal mast cells of the rats were employed for the test. Rat antiserum used in the passive sensitization was prepared in accordance with the method of Mota [Immunology, 7, p. 681 (1964)] and the method of Hamaoka [J. Immunology, 113, p. 958 (1974)]. Male Wistar rats (weighing 200-250 g) each were injected ovalbumin (10 mg/kg) in a volume of 5 ml/kg intramuscularly on both thighs and simultaneously 2×10^10 cells of killed Bordetella pertussis were intraperitoneally administered to immunize the animal. Blood was drawn from the animal under ether anesthesia via the abdominal aorta on day 12 of the initial sensitization,from which antiserum was separated. The antiserum was lyophilized and stored at -20° C. Titer of the antiserum was assayed by the 48-hour rat PCA reaction. […] The anti-albumin IgE serum of the rat was two fold diluted, and 1 ml of the diluted serum was intraperitoneally administered to sensitize the animal. The rat was killed by blooding 48 hours after the sensitization, and 15 ml of a phosphate buffered saline (NaCl 8 g, KCl 0.2 g, Na2 HPO4.12H2 O 2.88 g, KH2 PO4 0.2 g, EDTA.2Na 0.2 g and bovine serum albumin 1 g, dissolved in purified water to make 1 liter, pH 7.4 (called PBS(-) hereinbelow) was intraperitoneally injected. The rat was then given light abdominal massage for about 2 min. and subjected to laparotomy to collect cells in the abdominal cavity. The cell suspension was centrifuged (1,000 rpm, 10 min.) and then resuspended in PBS(-). The PBS(-) suspension was overlayered on gum arabic density (specific gravity 1.075) followed by centrifugal separation (2,500 rpm, 10 min.). Deposited cells were washed with PBS(-) and suspended in fresh PBS(+)[a solution in which the EDTA 2Na in PBS(-) is replaced by 0.1 g of CaCl2, called PBS(+)] and adjusted to 1×10^5 cells/ml. The cell suspension was divided into silicone-treated test tubes in a volume of 0.8 ml/tube, which were then preincubated at 37° C. for 10 min. In the cell suspension-containing test tube was placed 0.1 ml of a test solution from various solutions diluted with PBS(+) followed by incubation at 37° C. for 15 min. To the test tube was then added 0.1 ml of a mixed solution of ovalbumin antigen (final concentration 1 mg/ml) and phosphatidyl-L-serine (final concentration 100 μm/ml) followed by incubation for additional 15 min. to release histamine. For cromoglycate, one of the comparative drugs, the drug was added 30 sec. prior to the addition of the antigen, and incubation was then made for additional 15 min. The reaction was terminated by addition of 1 ml of ice-cooled PBS(+), and the reaction mixture was centrifuged at 2,500 rpm for 10 min. To 2 ml of the supernatant was added 1 ml of a 4% solution of perchloric acid, and the mixture was assayed for free histamine. For the assay of total histamine, a sample was prepared by placing 0.8 ml of a suspension of untreated mast cells in boiling water for 10 min. followed by addition of 4% perchloric acid.
# Amount of histamine in the sample was assayed by fluorimetry, and percent histamine release (%) was calculated by the equation [formula]
# TNF = assay: Productivity of humoral factors by lymphocytes: TNF; format: cell-based, human (healthy adult); conditions: for TNF: cultivation for a week, control 2,020; for production of TNF: summary of Table 7
# Procedure: (§2) Mononuclear cells separated by the density centrifugal method from blood of a healthy adult drawn in the presence of heparin were suspended in an RPMI-1640 culture medium containing 10% by volume of FBS. The suspension was divided into culture tubes (Falcon 2054) each at a concentration of 1×10^6 cells/ml, to which the captioned peptides were respectively added. Cultivation was made in an incubator for a week. After completion of the cultivation, the culture was centrifuged (1,500 rpm, 10 min.), and the supernatant collected and assayed for humoral factors. Interleukin 1 (IL-1) and tumor-nectrotizing factors were measured, respectively by a IL-1 radioimmunoassay kit (manufactured by Amersham International) and a TNF radioimmunoassay kit (manufactured by Medgenix). Measurement of interleukin 6 (IL-6) was made by the enzyme immunoassay method (ELISA) using IL-6 antibody (manufactured by Genzyme). Results of the measurements are shown in Table 7 wherein figures represent mean value±standard error.
# IL-6 = assay: Productivity of humoral factors by lymphocytes: IL-6; format: cell-based, human (healthy adult); conditions: for IL-6: cultivation for a week, control 270; for production of IL-6: summary of Table 7
# Procedure: as §2
# IL-1 = assay: Productivity of humoral factors by lymphocytes: IL-1; format: cell-based, human (healthy adult); conditions: for IL-1: cultivation for a week, control 7.1; for production of IL-1: summary of Table 7
# Procedure: as §2
# [4] = test system: lymphocytes (mononuclear cells from blood of a healthy adult); assay: Blast formation of lymphocytes stimulated with various lectins (3H-thymidine uptake); format: cell-based, human (healthy adult); conditions: for uptake of 3H-thymine by the lymphocytes stimulated with a lectin: particularly Con-A; for uptake of 3H-thymine by the lymphocytes stimulated with a lectin / influence upon uptake of 3H-thymine by lymphocytes in the absence of a mitogen: summary of Tables 3-6; for influence upon uptake of 3H-thymine by lymphocytes in the absence of a mitogen: no mitogen
# Procedure: Mononuclear cells were collected by the density centrifugal method from blood of a healthy adult drawn in the presence of heparin and suspended in an RPMI-1640 culture medium (manufactured by Gibco) containing 10% by volume of bovine fetus serum (called FBS, manufactured by Dainihon Seiyaku). The suspension, adjusted to a concentration of 1×10^6 cells/ml, was divided into a 96-well Falcon microplate (manufactured by Becton Dickinson) in a volume of 100 μl/well. Then, a lectin, 1 μg/ml of PHA (phytohemagglutinin), 10 μg/ml of Con-A (concanavalin A) or 15 μg/ml of PWM (pokeweed mitogen) and one of the captioned peptides at a predetermined concentration were added followed by addition of a 10% FBS containing RPMI-1640 medium to a final liquid volume of 200 μl. Cultivation was made in a 5% by volume CO2 incubator at 37° C. for 72 hours, and 24 hours before completion of the cultivation 5 μCi of ^3 H-thymidine was added. The cells were recovered by a cell harvester (manufactured by Bio-Lab), and uptake of the ^3 H-thymidine was measured by a scintillation counter. Results of the measurement are shown in Table 3-Table 6 wherein figures indicate mean count (cpm)±standard error.
# [5] = Con-A (10 μg/ml), peptide 10^-6 M, control 37,800
# [6] = Con-A (10 μg/ml), peptide 10^-8 M, control 37,800
# [7] = PHA (1 μg/ml), peptide 10^-6 M, control 69,600
# [8] = PHA (1 μg/ml), peptide 10^-8 M, control 69,600
# [9] = PWM (15 μg/ml), peptide 10^-6 M, control 13,600
# [10] = PWM (15 μg/ml), peptide 10^-8 M, control 13,600
# [11] = mitogen None, peptide 10^-6 M, control 1,090
# [12] = mitogen None, peptide 10^-8 M, control 1,090
Compound,Percent relaxation ([1]; compound 10^-4 M),Percent relaxation ([1]; compound 10^-5 M),Percent relaxation ([1]; compound 10^-6 M),Percent relaxation ([1]; compound 10^-7 M),Percent relaxation ([1]; compound 10^-8 M),Percent relaxation ([2]; compound 10^-4 M),Percent relaxation ([2]; compound 10^-5 M),Percent relaxation ([2]; compound 10^-6 M),Percent relaxation ([2]; compound 10^-7 M),Percent relaxation ([2]; compound 10^-8 M),TNF (TNF; additive 10^-6 M),TNF (TNF; additive 10^-8 M),production of TNF (TNF),IL-6 (IL-6; additive 10^-6 M),IL-6 (IL-6; additive 10^-8 M),production of IL-6 (IL-6),IL-1 (IL-1; additive 10^-6 M),IL-1 (IL-1; additive 10^-8 M),production of IL-1 (IL-1),"Uptake of 3H-thymidine by lymphocytes [4, 5]",also measured
"COc1ccc(CCN(C)CCCC(C#N)(c2ccc(OC)c(OC)c2)C(C)C)cc1OC (stereo not drawn) [Verapamil, verapamil, reference compound]",68.6%,47.1%,20.6%,4.6%,0%,100%,100%,97.1%,68.3%,7.1%,,,,,,,,,,,
"H-ADSDGK-OH [ADSDGK, H-Ala-Asp-Ser-Asp-Gly-Lys-OH]",,,,,,,,,,,"3,620 pg/ml","4,120 pg/ml",promote production,270 U/ml,270 U/ml,promote production,11.2 fM/ml,11.3 fM/ml,promote production,"21,500 cpm","inhibitory activity on histamine release [3]: clear inhibitory activity; potency of histamine release inhibition compared with H-Asp-Ser-Asp-Pro-Arg-OH [3]: higher; potency of histamine release inhibition compared with cromoglycate [3]: nearly equal to or higher; Uptake of 3H-thymidine by lymphocytes [4, 6]: 24,600 cpm; Uptake of 3H-thymidine by lymphocytes [4, 7]: 63,000 cpm; Uptake of 3H-thymidine by lymphocytes [4, 8]: 64,100 cpm; Uptake of 3H-thymidine by lymphocytes [4, 9]: 13,600 cpm; Uptake of 3H-thymidine by lymphocytes [4, 10]: 14,500 cpm; uptake of 3H-thymine by the lymphocytes stimulated with a lectin [4]: strongly inhibit; Uptake of 3H-thymidine by lymphocytes [4, 11]: 900 cpm; Uptake of 3H-thymidine by lymphocytes [4, 12]: 797 cpm; influence upon uptake of 3H-thymine by lymphocytes in the absence of a mitogen [4]: little influence"
H-Asp-Gly-Lys-OH [DGK],40.3%,9.3%,6.6%,0%,0%,11.2%,5.6%,0%,0%,0%,"4,730 pg/ml","4,110 pg/ml",promote production,440 U/ml,400 U/ml,promote production,9.5 fM/ml,7.1 fM/ml,promote production,"16,700 cpm","inhibitory activity on histamine release [3]: clear inhibitory activity; potency of histamine release inhibition compared with H-Asp-Ser-Asp-Pro-Arg-OH [3]: higher; potency of histamine release inhibition compared with cromoglycate [3]: nearly equal to or higher; Uptake of 3H-thymidine by lymphocytes [4, 6]: 20,000 cpm; Uptake of 3H-thymidine by lymphocytes [4, 7]: 62,500 cpm; Uptake of 3H-thymidine by lymphocytes [4, 8]: 62,700 cpm; Uptake of 3H-thymidine by lymphocytes [4, 9]: 9,590 cpm; Uptake of 3H-thymidine by lymphocytes [4, 10]: 11,500 cpm; uptake of 3H-thymine by the lymphocytes stimulated with a lectin [4]: strongly inhibit; Uptake of 3H-thymidine by lymphocytes [4, 11]: 925 cpm; Uptake of 3H-thymidine by lymphocytes [4, 12]: 1,120 cpm; influence upon uptake of 3H-thymine by lymphocytes in the absence of a mitogen [4]: little influence"
"H-DSDGK-OH [DSDGK, H-Asp-Ser-Asp-Gly-Lys-OH]",,,,,,,,,,,"4,270 pg/ml","4,100 pg/ml",promote production,400 U/ml,280 U/ml,promote production,8.3 fM/ml,7.3 fM/ml,promote production,"19,300 cpm","Uptake of 3H-thymidine by lymphocytes [4, 6]: 17,900 cpm; Uptake of 3H-thymidine by lymphocytes [4, 7]: 56,900 cpm; Uptake of 3H-thymidine by lymphocytes [4, 8]: 62,000 cpm; Uptake of 3H-thymidine by lymphocytes [4, 9]: 13,000 cpm; Uptake of 3H-thymidine by lymphocytes [4, 10]: 9,550 cpm; uptake of 3H-thymine by the lymphocytes stimulated with a lectin [4]: strongly inhibit; Uptake of 3H-thymidine by lymphocytes [4, 11]: 877 cpm; Uptake of 3H-thymidine by lymphocytes [4, 12]: 887 cpm; influence upon uptake of 3H-thymine by lymphocytes in the absence of a mitogen [4]: little influence"
nitroprusside [reference compound],98.8%,93.8%,86.0%,59.4%,16.1%,35.7%,24.3%,11.4%,1.4%,0%,,,,,,,,,,,
